# Data taken from US11390604B2 (Hoffmann-La Roche Inc., priority 2019, dated 2022).
# Where a name gives a salt, the structure may show the parent alone.
# System: Acinetobacter baumannii ATCC 17961
# Experiment: Antimicrobial susceptibility testing: 90% growth inhibitory concentration (IC90) determination
# Type: cell-based
# Conditions: ATCC17961, Acinetobacter baumannii ATCC 17961, Iso-Sensitest broth, read-out: ATCC 17961 IC90
# Outline: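 Broth microdilution in Iso-Sensitest medium, twofold series (e.g. 50 to 0.097 μM final), ~5×10^5 CFU/ml inoculum, 35±2 °C. OD600 read every 20 min over 16 h. IC90 derived from growth inhibition during logarithmic phase.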
row,Structure (SMILES),IC90 [nM]
1,"C[C@H](N)C(=O)N1CCN(C(=O)c2ccc(NC(=O)c3ncc(-c4cn(CC5CCC5)nc4C(F)(F)F)n3C)cc2Cl)CC1 [Example 278, N-(4-(4-(L-alanyl)piperazine-1-carbonyl)-3-chlorophenyl)-5-(1-(cyclobutylmethyl)-3-(trifluoromethyl)-1H-pyrazol-4-yl)-1-methyl-1H-imidazole-2-carboxamide hydrochloride]",344
2,"Cn1c(-c2cn(CC3CCC3)nc2C(F)(F)F)cnc1C(=O)Nc1ccc(C(=O)N2CCN(C(=O)C3CCN3)CC2)c(Cl)c1 (stereo not shown) [Example 281, N-(4-(4-(azetidine-2-carbonyl)piperazine-1-carbonyl)-3-chlorophenyl)-5-(1-(cyclobutylmethyl)-3-(trifluoromethyl)-1H-pyrazol-4-yl)-1-methyl-1H-imidazole-2-carboxamide hydrochloride]",348
3,"Cn1c(-c2cn(CC(F)F)nc2C(F)(F)F)cnc1C(=O)Nc1ccc(S(=O)(=O)N2CCN(C(=O)CN)CC2)cc1 [Example 282, 5-(1-(2,2-difluoroethyl)-3-(trifluoromethyl)-1H-pyrazol-4-yl)-N-(4-((4-glycylpiperazin-1-yl)sulfonyl)phenyl)-1-methyl-1H-imidazole-2-carboxamide formate]",348
4,"CCn1cc(-c2cnc(C(=O)Nc3ccc(C(=O)NCCCCCCN)c(Br)c3)n2C)c(C(F)(F)F)n1 [Example 284, N-(4-((6-aminohexyl)carbamoyl)-3-bromophenyl)-5-(1-ethyl-3-(trifluoromethyl)-1H-pyrazol-4-yl)-1-methyl-1H-imidazole-2-carboxamide hydrochloride]",350
5,"Cn1c(-c2cn(C3CC3)nc2C(F)(F)F)cnc1C(=O)Nc1ccc(C(=O)N2CCN(C(=O)[C@@H](N)CCCN)CC2)c(Cl)c1 [Example 285, (S)-N-(3-chloro-4-(4-(2,5-diaminopentanoyl)piperazine-1-carbonyl)phenyl)-5-(1-cyclopropyl-3-(trifluoromethyl)-1H-pyrazol-4-yl)-1-methyl-1H-imidazole-2-carboxamide dihydrochloride]",351
6,"Cn1c(-c2cn(C3CC3)nc2C(F)(F)F)cnc1C(=O)Nc1ccc(C(=O)N2CCN(C(=O)C3CNCC(O)C3)CC2)c(Cl)c1 (stereo not shown) [Example 286, N-[3-chloro-4-[4-(5-hydroxypiperidine-3-carbonyl)piperazine-1-carbonyl]phenyl]-5-[1-cyclopropyl-3-(trifluoromethyl)pyrazol-4-yl]-1-methylimidazole-2-carboxamide;hydrochloride]",351
7,"Cn1c(-c2cn(C3CC3)nc2C(F)(F)F)cnc1C(=O)Nc1ccc(C(=O)N2CCN(C(=O)[C@@H]3CCC[C@@H](N)C3)CC2)c(Cl)c1 [Example 287, N-(4-(4-((1R,3R)-3-aminocyclohexane-1-carbonyl)piperazine-1-carbonyl)-3-chlorophenyl)-5-(1-cyclopropyl-3-(trifluoromethyl)-1H-pyrazol-4-yl)-1-methyl-1H-imidazole-2-carboxamide hydrochloride]",352
8,"Cn1c(-c2cn(C3CC3)nc2C(F)(F)F)cnc1C(=O)Nc1ccc(C(=O)NC[C@H]2CC[C@H](N)CC2)c(Cl)c1 [Example 289, rac-N-(4-((((1r,4r)-4-aminocyclohexyl)methyl)carba-moyl)-3-chlorophenyl)-5-(1-cyclopropyl-3-(trifluoromethyl)-1H-pyrazol-4-yl)-1-methyl-1H-imidazole-2-carboxamide hydrochloride]",354

# Further lines, results first:
row,IC90 [nM],Structure (SMILES)
1,358,"Cn1c(-c2cn(CC(F)F)nc2C(F)(F)F)cnc1C(=O)Nc1ccc(C(=O)N2CCN(CCN)CC2)c(Cl)c1 [Example 290, N-(4-(4-(2-aminoethyl)piperazine-1-carbonyl)-3-chlorophenyl)-5-(1-(2,2-difluoroethyl)-3-(trifluoromethyl)-1H-pyrazol-4-yl)-1-methyl-1H-imidazole-2-carboxamide formate]"
2,359,"Cc1cc(NC(=O)c2ncc(-c3cn(CC#N)nc3C(F)(F)F)n2C)ccc1S(C)(=O)=NCCCN (stereo not shown) [Example 291, N-[4-[N-(3-aminopropyl)-S-methyl-sulfonimidoyl]-3-methyl-phenyl]-5-[1-(cyanomethyl)-3-(trifluoromethyl)pyrazol-4-yl]-1-methyl-imidazole-2-carboxamide; formic acid]"
3,364,"Cn1c(-c2cn(CC3CCC3)nc2C(F)(F)F)cnc1C(=O)Nc1ccc(C(=O)N2CCN(C(=O)[C@H]3C[C@@H](N)C3)CC2)c(Cl)c1 [Example 295, rac-N-(4-(4-((1s,3s)-3-aminocyclobutane-1-carbonyl)piperazine-1-carbonyl)-3-chlorophenyl)-5-(1-(cyclobutylmethyl)-3-(trifluoromethyl)-1H-pyrazol-4-yl)-1-methyl-1H-imidazole-2-carboxamide hydrochloride]"
4,364,"CCn1cc(-c2cnc(C(=O)Nc3ccc(C(=O)N4CCN(C(=O)N[C@H]5C[C@@H](N)C5)CC4)c(Cl)c3)n2C)c(C(F)(F)F)n1 [Example 296, N-(3-aminocyclobutyl)-4-[2-chloro-4-[[5-[1-ethyl-3-(trifluoromethyl)pyrazol-4-yl]-1-methylimidazole-2-carbonyl]amino]benzoyl]pipera-zine-1-carboxamide;formic acid]"
5,365,"CN1CCN(C(=O)N2CCN(C(=O)c3ccc(NC(=O)c4ncc(-c5cn(C6CC6)nc5C(F)(F)F)n4C)cc3Cl)CC2)CC1 [Example 297, N-(3-chloro-4-(4-(4-methylpiperazine-1-carbonyl)piperazine-1-carbonyl)phenyl)-5-(1-cyclopropyl-3-(trifluoromethyl)-1H-pyrazol-4-yl)-1-methyl-1H-imidazole-2-carboxamide]"
6,365,"Cn1c(-c2cn(CCF)nc2C(F)(F)F)cnc1C(=O)Nc1ccc(C(=O)N2CCN(C(=O)[C@H]3C[C@H](N)C3)CC2)c(Cl)c1 [Example 298, N-[4-[4-(3-aminocyclobutanecarbonyl)piper-azine-1-carbonyl]-3-chlorophenyl]-5-[1-(2-fluoroethyl)-3-(trifluoromethyl)pyrazol-4-yl]-1-methylimidazole-2-carboxamide;trihydrochloride]"
7,366,"Cn1c(-c2cn(C3CC3)nc2C(F)(F)F)cnc1C(=O)Nc1ccc(C(=O)N2CCN(C(=O)[C@H]3CCNC3)CC2)c(Cl)c1 [Example 299, (S)-N-(3-chloro-4-(4-(pyrrolidine-3-carbonyl)piperazine-1-carbonyl)phenyl)-5-(1-cyclopropyl-3-(trifluoromethyl)-1H-pyrazol-4-yl)-1-methyl-1H-imidazole-2-carboxamide hydrochloride]"
8,369,"Cn1c(-c2cn(CC(F)F)nc2C(F)(F)F)cnc1C(=O)Nc1ccc(C(=O)N2CCN(C(=O)C3CCNCC3)CC2)c(F)c1 [Example 301, 5-(1-(2,2-difluoroethyl)-3-(trifluoromethyl)-1H-pyrazol-4-yl)-N-(3-fluoro-4-(4-(piperidine-4-carbonyl)piperazine-1-carbonyl)phenyl)-1-methyl-1H-imidazole-2-carboxamide]"
9,370,"Cn1c(-c2cn(C3CC3)nc2C(F)(F)F)cnc1C(=O)Nc1ccc(C(=O)N2CCN(C(=O)CCCN)CC2)c(Cl)c1 [Example 302, N-(4-(4-(4-aminobutanoyl)piperazine-1-carbonyl)-3-chlorophenyl)-5-(1-cyclopropyl-3-(trifluoromethyl)-1H-pyrazol-4-yl)-1-methyl-1H-imidazole-2-carboxamide hydrochloride]"
10,371,"Cn1c(-c2cn(CC(F)F)nc2C(F)(F)F)cnc1C(=O)Nc1ccc(C(=O)N2CCN(C(=O)NCC3(O)CNC3)CC2)c(Cl)c1 [Example 303, 4-[2-chloro-4-[[5-[1-(2,2-difluoroethyl)-3-(trifluoromethyl)pyrazol-4-yl]-1-methyl-imidazole-2-carbonyl]amino]benzoyl]-N-[(3-hydroxyazetidin-3-yl)methyl]piperazine-1-carboxamide; formic acid]"
11,371,"Cn1c(-c2cn(CC3CCCC3)nc2C(F)(F)F)cnc1C(=O)Nc1ccc(C(=O)N2CCN(C(=O)C3CCNCC3)CC2)c(Cl)c1 [Example 304, N-(3-chloro-4-(4-(piperidine-4-carbonyl)piperazine-1-carbonyl)phenyl)-5-(1-(cyclopentylmethyl)-3-(trifluoromethyl)-1H-pyrazol-4-yl)-1-methyl-1H-imidazole-2-carboxamide hydrochloride]"
12,373,"Cn1c(-c2cn(CC(F)(F)F)nc2C(F)(F)F)cnc1C(=O)Nc1ccc(C(=O)N2CCN(C(=O)N[C@H]3C[C@@H](N)C3)CC2)c(Cl)c1 [Example 305, rac-N-((1s,3s)-3-aminocyclobutyl)-4-(2-chloro-4-(1-methyl-5-(1-(2,2,2-trifluoroethyl)-3-(trifluoromethyl)-1H-pyrazol-4-yl)-1H-imidazole-2-carboxamido)benzoyl)piperazine-1-carboxamide hydrochloride]"

# Same assay, conditions: Acinetobacter baumannii, ATCC17961, read-out: ATCC 17961 IC90, Acinetobacter baumannii ATCC 17961, Iso-Sensitest broth
row,Structure (SMILES),IC90 [nM]
1,"CC(C)Cn1cc(-c2cnc(C(=O)Nc3ccc(C(=O)N4CCN(C(=O)N[C@H]5C[C@@H](N)C5)CC4)c(Cl)c3)n2C)c(C(F)(F)F)n1 [Example 292, rac-N-((1s,3s)-3-aminocyclobutyl)-4-(2-chloro-4-(5-(1-isobutyl-3-(trifluoromethyl)-1H-pyrazol-4-yl)-1-methyl-1H-imidazole-2-carboxamido)benzoyl)piperazine-1-carboxamide hydrochloride]",361
2,"Cn1c(-c2cn(CC3CC(F)(F)C3)nc2C(F)(F)F)cnc1C(=O)Nc1ccc(C(=O)N2CCN(C(=O)N[C@H]3C[C@@H](N)C3)CC2)c(Cl)c1 [Example 293, rac-N-((1s,3s)-3-aminocyclobutyl)-4-(2-chloro-4-(5-(1-((3,3-difluorocyclobutypmethyl)-3-(trifluoromethyl)-1H-pyrazol-4-yl)-1-methyl-1H-imidazole-2-carboxamido)benzoyl)piperazine-1-carboxamide hydrochloride]",363
